The results in this text go back to ChEMBL document CHEMBL1201862, “PubChem BioAssay data set” (2004).

What all share (test): NCI tumour cell line growth inhibition, 48 h
Experiment [1] concerns ACHN.
Experiment [2] has as its system COLO 205.
Experiment [3] has as its system HCT-116.
Experiment [4] has as its system HCT-15.
Experiment [5] has as its system IGROV-1.
Experiment [6] has as its system KM12.
In experiment [7] the test system is MDA-MB-231.
The test system of experiment [8] is MDA-MB-435.
For experiment [9], the system named is MOLT-4.
Experiment [10] relates to Malme-3M.
Experiment [11] concerns NCI-H522.
For experiment [12], the system named is NCI/ADR-RES.
Experiment [13] has as its system SF-539.
For experiment [14], the system named is SK-MEL-5.
The test system of experiment [15] is SK-OV-3.
Experiment [16] has as its system SNB-75.
Experiment [17] has as its system SR.
For experiment [18], the system named is U-251.
Experiment [19] has as its system UACC-257.
Experiment [20] relates to UO-31.

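Protocol summary: plate cells (96-well), add compound at 5 concentrations, incubate 48 h, interpolate endpoints linearly. GI50: concentration for 50% inhibition of growth.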 The source made the active and inactive calls. Cut-off read from the data, not from the text of the source: active = GI50 up to about 1.1 µM and inactive = higher.

Consider `Cc1ccc(S(=O)(=O)Nc2cc(O)nc3c2CCC3)cc1`, for which the GI50 in experiment [1] is > 100 µM (inactive); in experiment [2], > 100 µM (inactive); in experiment [3], > 100 µM (inactive); in experiment [4] it was more than 100 µM; in experiment [5] it was > 100 µM (inactive); in [6] it was > 100 µM (inactive). Also, the GI50 in experiment [7] was > 100 µM (inactive); in experiment [8], > 100 µM (inactive); in experiment [9], 42.9 µM (inactive); in experiment [10] it was > 100 µM (inactive); in experiment [11] it was > 100 µM (inactive); in experiment [12] it was > 100 µM (inactive). For the same molecule, the GI50 is > 100 µM (inactive) in [13]; 73.5 µM (inactive) in experiment [14]; > 100 µM (inactive) in experiment [15]; > 100 µM (inactive) in experiment [16]; > 100 µM (inactive) in [17]; > 100 µM (inactive) in [18]. Besides, the GI50 in [19] and in experiment [20] was > 100 µM (inactive) throughout.

Take `COC(=O)CC(SCCO)SCCO`: the GI50 in experiment [1], in [2], in experiment [3], in [5], in experiment [6] and in [7] was > 100 µM (inactive) in each case. Also, the GI50 in [8], in experiment [9], in [10], in experiment [11], in [12] and in [13] was > 100 µM (inactive) in each case. The GI50 in [14] is > 100 µM (inactive); in experiment [15], > 100 µM (inactive); in [16], 75.7 µM (inactive); in experiment [17], > 100 µM (inactive); in experiment [19], > 100 µM (inactive); in experiment [20], > 100 µM (inactive).

For the molecule `O=C1C(/N=N/c2ccc(-c3nc4ccccc4o3)cc2)NC(=S)N1c1ccccc1` (stereo not drawn), the GI50 in [1] was > 100 µM (inactive); in experiment [2] it was > 100 µM (inactive); in experiment [3] it was > 100 µM (inactive); in [4], 62.8 µM; in experiment [5] it was 57.3 µM (inactive); in experiment [6] it was > 100 µM (inactive). The GI50 was > 100 µM (inactive) in [7]; 60.7 µM (inactive) in [8]; 34.7 µM (inactive) in [9]; > 100 µM (inactive) in experiment [10]; 60.4 µM (inactive) in [11]; 73.5 µM (inactive) in [12]. The GI50 was > 100 µM (inactive) in [13]; 49.1 µM (inactive) in experiment [14]; > 100 µM (inactive) in experiment [15]; 62.4 µM (inactive) in experiment [16]; 28.5 µM (inactive) in [17]; > 100 µM (inactive) in experiment [18]. Besides, the GI50 in experiment [19] was 39.1 µM (inactive); in [20], > 100 µM (inactive).

For `CC(C)(C)c1cc(C2NC(=O)NC2=O)cc(C(C)(C)C)c1O` (stereo not drawn), the GI50 in experiment [1] was > 100 µM (inactive); in experiment [2], > 100 µM (inactive); in experiment [3], 27.9 µM (inactive); in [4], 93.3 µM; in [5] it was > 100 µM (inactive); in experiment [6], 18.8 µM (inactive). Besides, the GI50 in experiment [7] is 35.6 µM (inactive); in [8], 31 µM (inactive); in [9], 39.5 µM (inactive); in experiment [10], 80 µM (inactive); in experiment [11], 32.8 µM (inactive); in experiment [12] it was > 100 µM (inactive). In addition, the GI50 is > 100 µM (inactive) in experiment [13]; > 10 µM (inactive) in [14]; > 100 µM (inactive) in experiment [15]; 29.4 µM (inactive) in experiment [16]; 28.8 µM (inactive) in experiment [17]; 39.5 µM (inactive) in experiment [18]. Also, the GI50 in [20] is > 100 µM (inactive).

Take `C=C(Cl)C(C)(Cl)CCC(Cl)C(C)(C)Cl` (stereo not drawn): the GI50 in experiment [1] is > 100 µM (inactive); in experiment [2], 44.8 µM (inactive); in experiment [3], 35.1 µM (inactive); in [5] it was 47.5 µM (inactive); in experiment [6], 87.9 µM (inactive); in [7], 32.7 µM (inactive). In addition, the GI50 was 62.2 µM (inactive) in experiment [8]; 23.9 µM (inactive) in [9]; 38.2 µM (inactive) in experiment [10]; 23.1 µM (inactive) in experiment [11]; > 100 µM (inactive) in [12]; > 100 µM (inactive) in [13]. Further, the GI50 in experiment [14] is 50.5 µM (inactive); in experiment [15], > 100 µM (inactive); in [16], 41.9 µM (inactive); in [17], 23.8 µM (inactive); in experiment [18], 46.9 µM (inactive); in experiment [19], 29.4 µM (inactive). Also, in experiment [20], the GI50 is 37.6 µM (inactive).

For `CSC1=C(C(=O)Nc2ccccc2)C(N)=NC1=O`, the GI50 in experiment [2] is > 100 µM (inactive); in experiment [3] it was > 100 µM (inactive); in [4], more than 100 µM; in experiment [6], > 100 µM (inactive); in [7], > 100 µM (inactive); in experiment [8], > 100 µM (inactive). In addition, the GI50 is > 100 µM (inactive) in [9]; > 100 µM (inactive) in [10]; 11.3 µM (inactive) in experiment [11]; > 100 µM (inactive) in experiment [12]; > 100 µM (inactive) in [13]; > 100 µM (inactive) in [14]. Also, the GI50 in experiment [15] was > 100 µM (inactive); in experiment [16], > 100 µM (inactive); in experiment [17], 32.4 µM (inactive); in experiment [18], > 100 µM (inactive); in [19], > 100 µM (inactive); in [20] it was 17.1 µM (inactive).

Turning to `CSC1=C(c2ccc(Cl)cc2)SC(N2CCCCC2)N1c1ccc([N+](=O)[O-])cc1` (stereo not drawn), the GI50 is 25.2 µM (inactive) in experiment [1]; 27.1 µM (inactive) in experiment [2]; 23 µM (inactive) in experiment [3]; 26.1 µM in experiment [4]; 29.8 µM (inactive) in [5]; 31 µM (inactive) in experiment [6]. Besides, the GI50 in experiment [7] was 27.1 µM (inactive); in experiment [8] it was 31.6 µM (inactive); in experiment [9], 26 µM (inactive); in [10] it was 45.2 µM (inactive); in [11] it was 24.2 µM (inactive); in experiment [12], 26.7 µM (inactive). The GI50 was 21.3 µM (inactive) in experiment [13]; 14.6 µM (inactive) in experiment [14]; 30.9 µM (inactive) in experiment [15]; 26.2 µM (inactive) in experiment [16]; 31.3 µM (inactive) in experiment [17]; 21.4 µM (inactive) in experiment [18]. Besides, the results for the GI50 in [19] and in experiment [20] were 24.8 µM (inactive) and 32.7 µM (inactive), respectively.

On to `COC(=O)/C=C(/OC)[C@H](C)[C@H](/C=C/c1csc(-c2csc(C(C)C)n2)n1)OC`, for which the GI50 in experiment [1] is 0.124 µM (active); in [2], 3.38 µM (inactive); in [3] it was 0.284 µM (active); in experiment [4], 0.0975 µM; in experiment [5], 0.426 µM (active); in [6], 1.52 µM (inactive). Besides, the GI50 in experiment [7] is 4.69 µM (inactive); in experiment [8], 0.925 µM (active); in experiment [9], 0.0703 µM (active); in [10], 18.8 µM (inactive); in experiment [11], 1.21 µM (inactive); in [12], 0.841 µM (active). Further, the GI50 in [13] was 8.79 µM (inactive); in experiment [14], < 0.0177 µM (active); in experiment [15], > 62.1 µM (inactive); in [16], > 100 µM (inactive); in [17], 0.0929 µM (active); in experiment [18] it was 0.149 µM (active). Also, the GI50 is 0.455 µM (active) in [19] and 0.703 µM (active) in [20].

`CC[C@@]1(O)C(=O)OCc2c1cc1n(c2=O)Cc2c-1nc1ccccc1c2/C=N\NC(=O)C(N)Cc1c[nH]cn1` (stereo partly drawn): the GI50 is 0.043 µM (active) in experiment [1]; 8.39 µM (inactive) in experiment [2]; 0.43 µM (active) in experiment [3]; 1.34 µM in [4]; 3.75 µM (inactive) in experiment [5]; 2.38 µM (inactive) in experiment [6]. Also, the GI50 in experiment [7] was 3.4 µM (inactive); in experiment [8], 1.37 µM (inactive); in [9], 0.0259 µM (active); in experiment [10], 2.53 µM (inactive); in experiment [11], 0.372 µM (active); in experiment [12], 0.41 µM (active). The GI50 is 0.0528 µM (active) in experiment [13]; 0.222 µM (active) in [14]; 0.234 µM (active) in experiment [15]; 0.067 µM (active) in experiment [16]; 0.0101 µM (active) in experiment [17]; 0.0776 µM (active) in experiment [18]. In addition, the GI50 in experiment [19] is 2.68 µM (inactive); in [20], 0.348 µM (active).

Regarding `COc1cc([C@@H]2c3cc4c(cc3C[C@H]3COC(=O)[C@@H]32)OCO4)cc2c1OCO2` [AUSTROBAILIGNAN 1], the GI50 in [1] is < 0.0121 µM (active); in experiment [2] it was 0.0108 µM (active); in [3], < 0.01 µM (active); in experiment [4], less than 0.01 µM; in [5], < 0.01 µM (active); in [6] it was 0.132 µM (active). The GI50 in experiment [7], in [8], in [9], in [10], in experiment [11] and in experiment [12] was < 0.01 µM (active) throughout. In addition, the GI50 in experiment [13] is < 0.01 µM (active); in experiment [14], < 0.01 µM (active); in experiment [15], < 0.01 µM (active); in experiment [16], 0.0278 µM (active); in [17] it was < 0.01 µM (active); in experiment [18], < 0.01 µM (active). Moreover, the GI50 in experiment [20] is < 0.01 µM (active).
